# From PubChem BioAssay AID328 (DTP/NCI, 2004)
# Where “and” joins values, the source holds several entries; their conditions need not be identical. Equal entries are not always repeated. Toxic doses and inconclusive results are not listed.
# System: BDF1 mice, P388 leukemia ip, median survival T/C
# Assay: NCI In Vivo Anticancer Drug Screen. Data for tumor model P388 Leukemia (intraperitoneal) in B6D2F1 (BDF1) mice
# Settings: endpoint: median survival time, higher = longer survival
# Outline: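 Antitumour effect was judged in vivo: survival in drug-treated mice, normalised to that of vehicle-dosed controls, gives the reported T/C.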
# [1] = dose: 50.0 mg/kg/injection, schedule: Q01DX009 (ip), vehicle: saline with Tween-80
# [2] = dose: 100.0 mg/kg/injection, schedule: Q01DX009 (ip), vehicle: saline with Tween-80
# [3] = dose: 200.0 mg/kg/injection, schedule: Q01DX009 (ip), vehicle: saline with Tween-80
# [4] = dose: 400.0 mg/kg/injection, schedule: Q01DX009 (ip), vehicle: saline with Tween-80
# [5] = dose: 37.5 mg/kg/injection, schedule: Q01DX009 (ip), vehicle: Klucel (hydroxypropylcellulose) (HPC)
# [6] = dose: 6.25 mg/kg/injection, schedule: Q01DX009 (ip), vehicle: saline
# [7] = dose: 12.5 mg/kg/injection, schedule: Q01DX009 (ip), vehicle: saline
# [8] = dose: 25.0 mg/kg/injection, schedule: Q01DX009 (ip), vehicle: saline
# [9] = dose: 100.0 mg/kg/injection, schedule: Q01DX009 (ip), vehicle: saline
# [10] = dose: 200.0 mg/kg/injection, schedule: Q01DX009 (ip), vehicle: saline
# [11] = dose: 100.0 mg/kg/injection, schedule: Q04DX003 (ip), vehicle: saline with Tween-80
# [12] = dose: 200.0 mg/kg/injection, schedule: Q04DX003 (ip), vehicle: saline with Tween-80
# [13] = dose: 400.0 mg/kg/injection, schedule: Q04DX003 (ip), vehicle: saline with Tween-80
# [14] = dose: 25.0 mg/kg/injection, schedule: Q04DX003 (ip), vehicle: other
# [15] = dose: 100.0 mg/kg/injection, schedule: Q01DX001 (ip), vehicle: Klucel (hydroxypropylcellulose) (HPC)
# [16] = dose: 200.0 mg/kg/injection, schedule: Q01DX001 (ip), vehicle: Klucel (hydroxypropylcellulose) (HPC)
# [17] = dose: 400.0 mg/kg/injection, schedule: Q01DX001 (ip), vehicle: Klucel (hydroxypropylcellulose) (HPC)
# [18] = dose: 6.25 mg/kg/injection, schedule: Q01DX009 (ip), vehicle: saline with Tween-80
# [19] = dose: 12.5 mg/kg/injection, schedule: Q01DX009 (ip), vehicle: saline with Tween-80
# [20] = dose: 25.0 mg/kg/injection, schedule: Q01DX009 (ip), vehicle: saline with Tween-80
# [21] = dose: 100.0 mg/kg/injection, schedule: Q04DX003 (ip), vehicle: Klucel (hydroxypropylcellulose) (HPC)
# [22] = dose: 200.0 mg/kg/injection, schedule: Q04DX003 (ip), vehicle: Klucel (hydroxypropylcellulose) (HPC)
# [23] = dose: 400.0 mg/kg/injection, schedule: Q04DX003 (ip), vehicle: Klucel (hydroxypropylcellulose) (HPC)
# [24] = dose: 100.0 mg/kg/injection, schedule: Q04DX003 (ip), vehicle: saline
smiles,measurement,setting,value
O=S(=O)(Nc1ccc(-c2ccccc2)cc1)c1ccccc1,T/C,[1],108 % of control
same,T/C,[2],101 % of control
same,T/C,[3],101 % of control
same,T/C,[4],106 % of control
CSc1nnnn1-c1ccccc1,T/C,"dose: 16.5 mg/kg/injection, schedule: Q01DX009 (ip), vehicle: Klucel (hydroxypropylcellulose) (HPC)",104 % of control
same,T/C,"dose: 25.0 mg/kg/injection, schedule: Q01DX009 (ip), vehicle: Klucel (hydroxypropylcellulose) (HPC)",95 % of control
same,T/C,[5],104 % of control
same,T/C,"dose: 50.0 mg/kg/injection, schedule: Q01DX009 (ip), vehicle: Klucel (hydroxypropylcellulose) (HPC)",100 % of control
same,T/C,"dose: 100.0 mg/kg/injection, schedule: Q01DX009 (ip), vehicle: Klucel (hydroxypropylcellulose) (HPC)",100 % of control
C=C(Cl)CSCCS,T/C,"dose: 25.0 mg/kg/injection, schedule: Q01DX009 (ip), vehicle: acetone",104 % of control
same,T/C,"dose: 50.0 mg/kg/injection, schedule: Q01DX009 (ip), vehicle: acetone",104 % of control
COC1OC(CO)C(O)C(O)C1O (configuration not stated),T/C,[6],97 % of control
same,T/C,[7],106 % of control
same,T/C,[8],97 % of control
same,T/C,[9],104 % of control
same,T/C,[10],106 % of control
CC(=O)Nc1c(Cl)cc2c(c1Cl)Cc1cc([N+](=O)[O-])ccc1-2,T/C,[2],95 % of control
same,T/C,[11],92 % of control and 95 % of control
same,T/C,[3],95 % of control
same,T/C,[12],92 % of control and 95 % of control
same,T/C,[4],100 % of control
same,T/C,[13],91 % of control
CN(N=O)P(=O)(Nc1ccccc1)Nc1ccccc1,T/C,[14],100 % of control
same,T/C,"dose: 50.0 mg/kg/injection, schedule: Q04DX003 (ip), vehicle: other",100 % of control
same,T/C,"dose: 100.0 mg/kg/injection, schedule: Q04DX003 (ip), vehicle: other",95 % of control
Cc1c(F)cc(I)cc1[N+](=O)[O-],T/C,[15],113 % of control
same,T/C,[16],104 % of control
same,T/C,[17],118 % of control
Cc1nc(CN(C)C)c2cnccn12,T/C,[6],95 % of control
same,T/C,[7],104 % of control
same,T/C,[8],100 % of control
CC(=O)N(C)C(C(=O)N1CC(C)CC1C(=O)N(C)C1C(=O)NC(CC(C)C)C(=O)N2CC(C)CC2C(=O)NC(CC(C)C)C(=O)N(C)C(C(C)C)C(=O)N2CCCC2C(=O)N(C)C(CC(C)C)C(=O)NCC(=O)OC1C)C(C)C (configuration not stated),T/C,[5],107 % of control
same,T/C,"dose: 75.0 mg/kg/injection, schedule: Q01DX009 (ip), vehicle: Klucel (hydroxypropylcellulose) (HPC)",107 % of control
CC(C)CC(NC(=O)CF)C(=O)O (configuration not stated),T/C,"dose: 2.5 mg/kg/injection, schedule: Q01DX009 (ip), vehicle: saline",111 % of control
CCN(CC)CCCC(C)Nc1ncnc2oc(C)c(C)c12 (configuration not stated),T/C,[18],95 % of control
same,T/C,[19],100 % of control
same,T/C,[20],100 % of control
O=C(OC1c2ccccc2C2CC21)c1cc([N+](=O)[O-])cc([N+](=O)[O-])c1 (configuration not stated),T/C,[1],100 % of control
same,T/C,[2],104 % of control
same,T/C,[3],104 % of control
CCCCNC(C)(C)C(SS)c1ccc(C(F)(F)F)cc1 (configuration not stated),T/C,"dose: 6.25 mg/kg/injection, schedule: Q04DX003 (ip), vehicle: other",100 % of control
same,T/C,"dose: 12.5 mg/kg/injection, schedule: Q04DX003 (ip), vehicle: other",105 % of control
same,T/C,[14],110 % of control
C=C(C)Cc1cnc(SCc2ccccc2)[nH]c1=O,T/C,[21],104 % of control
same,T/C,[22],109 % of control
same,T/C,[23],113 % of control
c1ccc(CN2C3Oc4ccccc4C2Oc2ccccc23)cc1,T/C,[1],94 % of control
same,T/C,[3],87 % of control
C/C(=N/N(C)C)c1ccccn1,T/C,[2],103 % of control
same,T/C,[11],104 % of control
same,T/C,[3],100 % of control
same,T/C,[12],100 % of control
same,T/C,[13],100 % of control
O=c1oc2ccccc2c(O)c1C(C/C(=N/O)c1ccccc1)c1ccccc1 (configuration not stated),T/C,[18],99 % of control
same,T/C,"dose: 6.25 mg/kg/injection, schedule: Q04DX003 (ip), vehicle: saline with Tween-80",100 % of control and 101 % of control
same,T/C,[19],94 % of control
same,T/C,"dose: 12.5 mg/kg/injection, schedule: Q04DX003 (ip), vehicle: saline with Tween-80",92 % of control and 107 % of control
same,T/C,[20],93 % of control
same,T/C,"dose: 25.0 mg/kg/injection, schedule: Q04DX003 (ip), vehicle: saline with Tween-80",105 % of control and 108 % of control
same,T/C,"dose: 50.0 mg/kg/injection, schedule: Q04DX003 (ip), vehicle: saline with Tween-80",95 % of control and 110 % of control
same,T/C,[11],102 % of control
OC12CCCC3CCCC(CCC1)C32 (configuration not stated),T/C,[21],100 % of control
same,T/C,[22],100 % of control
same,T/C,[23],100 % of control
S=P(N1CCCCCC1)(N1CC1)N1CC1,T/C,"dose: 16.5 mg/kg/injection, schedule: Q01DX009 (ip), vehicle: saline",154 % of control
same,T/C,[8],195 % of control
same,T/C,"dose: 37.5 mg/kg/injection, schedule: Q01DX009 (ip), vehicle: saline",122 % of control
OCCSc1ncc2cnccn12,T/C,"dose: 100.0 mg/kg/injection, schedule: Q04DX003 (ip), vehicle: water",109 % of control
same,T/C,"dose: 200.0 mg/kg/injection, schedule: Q04DX003 (ip), vehicle: water",109 % of control
same,T/C,"dose: 400.0 mg/kg/injection, schedule: Q04DX003 (ip), vehicle: water",109 % of control
Cc1cc(S(=O)(=O)c2ccc(Cl)c(C)c2)ccc1Cl,T/C,[1],105 % of control
same,T/C,[2],100 % of control
same,T/C,[3],91 % of control
CO[C@H]1C[C@H](O[C@H]2CC[C@]3(C=O)[C@H]4CC[C@]5(C)[C@@H](C6=CC(=O)OC6)CC[C@]5(O)[C@@H]4CC[C@]3(O)C2)O[C@H](C)[C@H]1O,T/C,"dose: 0.62 mg/kg/injection, schedule: Q01DX010 (ip), vehicle: steriod suspending solution",95 % of control
same,T/C,"dose: 1.25 mg/kg/injection, schedule: Q01DX010 (ip), vehicle: steriod suspending solution",90 % of control
same,T/C,"dose: 2.5 mg/kg/injection, schedule: Q01DX010 (ip), vehicle: steriod suspending solution",95 % of control
same,T/C,"dose: 5.0 mg/kg/injection, schedule: Q01DX010 (ip), vehicle: steriod suspending solution",90 % of control
Cc1ccc(S(=O)(=O)Oc2ccc([N+](=O)[O-])cc2[N+](=O)[O-])cc1,T/C,"dose: 25.0 mg/kg/injection, schedule: Q04DX003 (ip), vehicle: saline",104 % of control
same,T/C,"dose: 50.0 mg/kg/injection, schedule: Q04DX003 (ip), vehicle: saline",109 % of control
same,T/C,[24],109 % of control
Cc1c2oc3c(C)ccc(C(=O)NCCc4ccccn4)c3nc-2c(C(=O)NCCc2ccccn2)c(N)c1=O,T/C,"dose: 100.0 mg/kg/injection, schedule: Q04DX002 (ip), vehicle: saline with Tween-80",101 % of control
same,T/C,"dose: 200.0 mg/kg/injection, schedule: Q04DX002 (ip), vehicle: saline with Tween-80",92 % of control
same,T/C,"dose: 400.0 mg/kg/injection, schedule: Q04DX002 (ip), vehicle: saline with Tween-80",97 % of control
O=C(CCl)NCc1cnccn1,T/C,[8],107 % of control
same,T/C,"dose: 50.0 mg/kg/injection, schedule: Q01DX009 (ip), vehicle: saline",102 % of control
same,T/C,[9],108 % of control
same,T/C,[24],94 % of control
same,T/C,[10],102 % of control
same,T/C,"dose: 200.0 mg/kg/injection, schedule: Q04DX003 (ip), vehicle: saline",117 % of control
Cc1cc(N(CCCl)CCCl)ccc1C=Nc1ccccc1C(=O)O,T/C,[2],164 % of control
same,T/C,[3],180 % of control
CCCn1c(=S)[nH]c2ccccc2c1=O,T/C,[15],100 % of control
same,T/C,[16],100 % of control
same,T/C,[17],100 % of control
CCCCCCCCCCCCCCCCOc1ccccc1CNc1cc(C(F)(F)F)ccc1Cl,T/C,"dose: 100.0 mg/kg/injection, schedule: Q01DX009 (ip), vehicle: other",90 % of control
same,T/C,"dose: 200.0 mg/kg/injection, schedule: Q01DX009 (ip), vehicle: other",100 % of control
same,T/C,"dose: 400.0 mg/kg/injection, schedule: Q01DX009 (ip), vehicle: other",105 % of control
